One assay deals with T1, Human topoisomerase I (Homo sapiens, UniProt P11387).
T1 construct: purchased TopoGEN Inc. (Port Orange, Fla., USA)
T1 sequence (P11387 1-765): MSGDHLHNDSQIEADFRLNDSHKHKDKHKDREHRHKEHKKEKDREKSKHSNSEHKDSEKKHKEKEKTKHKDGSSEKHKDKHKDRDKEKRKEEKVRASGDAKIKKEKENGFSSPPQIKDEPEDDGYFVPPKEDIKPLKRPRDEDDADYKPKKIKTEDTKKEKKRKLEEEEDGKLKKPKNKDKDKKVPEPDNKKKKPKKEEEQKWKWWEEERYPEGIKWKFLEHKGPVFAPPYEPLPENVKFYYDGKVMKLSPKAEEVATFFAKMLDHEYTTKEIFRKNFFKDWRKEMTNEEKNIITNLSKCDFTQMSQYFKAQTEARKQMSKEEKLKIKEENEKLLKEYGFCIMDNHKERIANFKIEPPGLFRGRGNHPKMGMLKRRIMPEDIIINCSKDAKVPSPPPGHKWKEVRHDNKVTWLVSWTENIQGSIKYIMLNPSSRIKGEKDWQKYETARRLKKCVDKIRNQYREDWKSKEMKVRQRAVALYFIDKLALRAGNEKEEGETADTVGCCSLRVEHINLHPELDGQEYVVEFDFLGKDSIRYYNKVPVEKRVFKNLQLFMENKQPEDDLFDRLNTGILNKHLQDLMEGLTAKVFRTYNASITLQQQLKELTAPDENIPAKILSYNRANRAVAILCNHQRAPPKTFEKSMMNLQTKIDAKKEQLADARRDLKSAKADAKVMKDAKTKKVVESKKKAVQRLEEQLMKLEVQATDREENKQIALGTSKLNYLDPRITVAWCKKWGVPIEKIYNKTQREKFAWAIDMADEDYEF
Kind of assay: Human topoisomerase I-mediated relaxation assay. It is filed as biochemical. The protocol: Human topoisomerase I-mediated relaxation assays were performed as per the manufacturer's instructions. Topoisomerase I (2 nM) was added to reactions containing 10 mM of Tris.HCl, pH 7.9, 150 mM NaCl, 100 μM spermidine.HCl, 5% glycerol, 0.1% BSA, 4.6 nM of […] pBR322 DNA, and inhibitor where appropriate.
(§1) All in vitro reactions were incubated at 37° C. for 30 minutes. The DMSO concentration in each reaction was kept constant at 3.33%. Reactions were quenched with the addition of an equal volume of phenol/chloroform/isoamyl alcohol (25:24:1) and one tenth volume of loading buffer containing 40% sucrose, 100 mM Tris.HCl pH 7.5, 100 mM EDTA, 2 mg/mL bromophenol blue. The proteins were precipitated by vortexing, followed by centrifugation for 5 minutes at 16 000 g. The aqueous phase was loaded onto 1% agarose gels in Tris-acetate and were electrophoresed at 60 V for three hours in Tris-acetate buffer. The gels were stained in 1 μg/mL ethidium bromide. The gels were visualised using UV light and were documented and analysed using Syngene software.

In assay [1] the target is T2, Human topoisomerase IIα (Homo sapiens, UniProt P11388). Description: Human Topoisomerase IIα decatenation assay. In kind it is biochemical. Details: purchased TopoGEN Inc. (Port Orange, Fla., USA). The procedure: (§2) Human Topoisomerase IIα-mediated relaxation assays and decatenation assays were performed as per the manufacturer's instructions in a total of 20 μL. Relaxation assays contained Topoisomerase IIα (4.3 nM), 50 mM Tris.HCl pH 8,120 mM KCl, 10 mM MgCl2, 0.5 mM DTT, 0.5 mM ATP, 4.6 nM of supercoiled pBR322 DNA, and inhibitor where appropriate. Decatenation assays substituted the supercoiled DNA with 200 ng catenated kinetoplast DNA.
T2 sequence (P11388 whole entry): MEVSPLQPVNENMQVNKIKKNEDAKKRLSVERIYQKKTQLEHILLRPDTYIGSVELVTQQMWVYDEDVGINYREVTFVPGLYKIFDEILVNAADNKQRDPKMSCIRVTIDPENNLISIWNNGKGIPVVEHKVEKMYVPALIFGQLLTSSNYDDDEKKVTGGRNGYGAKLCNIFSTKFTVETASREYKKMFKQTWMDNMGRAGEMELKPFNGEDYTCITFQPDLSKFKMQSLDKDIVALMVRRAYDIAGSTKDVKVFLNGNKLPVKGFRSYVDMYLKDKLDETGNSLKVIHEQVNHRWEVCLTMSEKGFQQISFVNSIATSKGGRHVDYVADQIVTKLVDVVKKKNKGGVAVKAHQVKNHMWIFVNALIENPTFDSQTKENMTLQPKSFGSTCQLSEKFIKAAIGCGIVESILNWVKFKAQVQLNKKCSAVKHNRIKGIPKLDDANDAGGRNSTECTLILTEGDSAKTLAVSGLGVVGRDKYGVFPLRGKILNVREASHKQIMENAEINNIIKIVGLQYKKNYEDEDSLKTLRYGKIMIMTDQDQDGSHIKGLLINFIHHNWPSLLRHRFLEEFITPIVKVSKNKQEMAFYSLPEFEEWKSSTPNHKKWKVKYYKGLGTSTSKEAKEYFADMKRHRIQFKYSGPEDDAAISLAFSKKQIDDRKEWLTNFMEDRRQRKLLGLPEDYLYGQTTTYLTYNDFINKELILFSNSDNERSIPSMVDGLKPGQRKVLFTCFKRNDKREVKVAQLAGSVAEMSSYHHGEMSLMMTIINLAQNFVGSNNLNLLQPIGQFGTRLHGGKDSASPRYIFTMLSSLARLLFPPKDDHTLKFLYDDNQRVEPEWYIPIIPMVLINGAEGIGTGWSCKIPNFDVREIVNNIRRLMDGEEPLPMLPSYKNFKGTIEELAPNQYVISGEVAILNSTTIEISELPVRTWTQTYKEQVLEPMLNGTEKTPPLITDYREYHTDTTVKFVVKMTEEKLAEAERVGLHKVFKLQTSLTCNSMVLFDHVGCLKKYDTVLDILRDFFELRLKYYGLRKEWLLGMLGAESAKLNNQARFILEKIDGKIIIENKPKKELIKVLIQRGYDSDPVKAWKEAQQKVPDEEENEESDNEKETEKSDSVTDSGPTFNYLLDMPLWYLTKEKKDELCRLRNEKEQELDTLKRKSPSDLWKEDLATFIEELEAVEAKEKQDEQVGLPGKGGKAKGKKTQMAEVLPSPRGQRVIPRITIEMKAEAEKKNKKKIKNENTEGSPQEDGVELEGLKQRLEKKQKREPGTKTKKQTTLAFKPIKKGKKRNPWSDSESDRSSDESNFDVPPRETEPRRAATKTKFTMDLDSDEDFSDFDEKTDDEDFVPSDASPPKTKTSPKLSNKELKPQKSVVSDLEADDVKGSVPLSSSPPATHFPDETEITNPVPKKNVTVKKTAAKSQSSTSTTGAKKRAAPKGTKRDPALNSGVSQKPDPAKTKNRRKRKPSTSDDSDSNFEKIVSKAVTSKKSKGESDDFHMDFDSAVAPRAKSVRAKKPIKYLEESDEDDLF
as §1

Assay [2] concerns the target T3, E. coli Topoisomerase IV (Escherichia coli, UniProt P0AFI2+P20083). Description: biochemical. It is filed as biochemical. Details: purchased John Innes Enterprises (Norwich, UK).
Experimental: (§5) Topoisomerase IV-mediated relaxation assays and decatenation assays were performed as previously described (see Peng and Marians, 1993). […] Decatenation assays contained topoisomerase IV (4 nM), 40 mM Tris HCl pH 7.5 at 30° C., 6 mM MgCl2, 10 mM DTT, 1 mM spermidine.HCl, 100 mM potassium glutamate, 0.5 mM ATP, 0.5 mg/mL BSA, 200 ng of kinetoplast DNA, and inhibitor where appropriate.
For assay [3], the target named is T2, Human topoisomerase IIα. Kind of assay: Human Topoisomerase IIα-mediated relaxation assay. In kind it is biochemical. Details: purchased TopoGEN Inc. (Port Orange, Fla., USA). The protocol: as §2, §1
For assay [4], the target named is T4, DNA gyrase (Escherichia coli, UniProt P0AES4+P0AES6). Description: biochemical. Details: species or system E. coli. Particulars: for IC50 SC gyrase: Table 5-C.
The target of assay [5] is DNA gyrase MG1655 wild type A2B2 (Escherichia coli, UniProt P0AES4+P0AES6). Kind of assay: biochemical. Details: species or system E. coli.
Experimental: ATP hydrolysis by DNA gyrase was linked to the oxidation of NADH using a pyruvate Kinase (PK)/lactate dehydrogenase (LDH) coupled enzyme assay and measured at 340 nm on a Spectramax Plus Microplate. […] Each 100 μL reaction contained 50 mM Tris.HCl (pH 7.5), 24 mM KCl, 5 mM MgCl2, 6.5% (w/w) glycerol, 4 mM dithiotreitol, 0.4 mM NADH, 0.8 mM phosphorenol-pyruvate, 1% (w/w) PK/LDH mixture (Sigma), 51 nM-153 nM gyrase enzyme and the drug tested at varying concentrations. DMSO was kept constant at 2%. The reactions were measured in the presence or absence of linear DNA pBR322 at fixed concentration of 8.4 nM. Reactions were initiated by the addition of 10 mM Mg.ATP and measured at 25° C. over 1.5 hours.
DNA-dependent ATPase reactions were tested with the wild type enzyme A2B2 and the W751R mutant enzyme. In these DNA-dependent ATPase assays, the concentration of wild type A2B2 is 51 nM, the concentration of W751R mutant enzyme is 106 nM.
Experimental data were fitted and treated with the following equation:
where L represents the inhibitor concentration, v represents the rate of the ATPase reaction, and v0 represents the rate in absence of inhibitor. The IC50 is deduced from the equation 2:
Assay [6] addresses DNA gyrase W751R mutant A2B2 (Escherichia coli, UniProt P0AES4+P0AES6, W751R). In kind it is biochemical, E. coli.
Experimental: ATP hydrolysis by DNA gyrase was linked to the oxidation of NADH using a pyruvate Kinase (PK)/lactate dehydrogenase (LDH) coupled enzyme assay and measured at 340 nm on a Spectramax Plus Microplate. […] DMSO was kept constant at 2%.
DNA-dependent ATPase reactions were tested with the wild type enzyme A2B2 and the W751R mutant enzyme.
In assay [7] the test system is A. thaliana ecotype Columbia seeds. Kind of assay: Seed germination of A. thaliana. It is filed as in vivo, Arabidopsis thaliana. The following applies: 36 hours; 100 μM Peptide 1; 5 μM CFX.
Experimental: The microcin derivatives were tested for efficacy in planta against Arabidopsis thaliana ecotype Columbia according to known methods (see Wall et al., 2004).
In a further assay the test system is HeLa cells. Kind of assay: cells. In kind it is cell-based, human. Particulars: MTT, 24 hours; read-out: In vivo HeLa Cells (approximate IC50). The procedure:
(§3) Human cell cultures were initiated from frozen cell stocks (the gift of Dr J. Gavrilovic, UEA). The HT-29 line is derived from a colorectal adenocarcinoma while HeLa cells are derived from a cervical epithelial adenocarcinoma (see FIG. 35). Both human cell lines form adherent cultures and were maintained at 37° C. in T25 culture vessels as 10 mL cultures in CO2 Independent Media containing 10% foetal bovine serum (EU approved), 4 mM L-glutamine, penicillin/streptomycin (Invitrogen). A subcultivation ratio of 1:3 and 1:6 were maintained for HT-29 and HeLa lines respectively. Media was renewed every three days.
(§4) The assay to determine the effects of the heterocyclic compounds on mammalian cells is based on the cleavage of the yellow tetrazolium salt MTT to purple formazoan crystals by metabolically active cells (Roche). After incubation with MTT and solubilization, the resulting coloured solution is quantified using a scanning spectrophotometer. Each of the cell lines was trypsinised and resuspended in fresh media prior to transfer to sterile flat-bottomed microtitre plates (200 μL per well) and allowed to recover for 16 hours. Five thousand HT-29 or 7500 HeLa cells per 100 μL culture medium were incubated in the presence of the drugs in various concentrations (totalling 10 μL) for 24 hours. Cell viability was then determined by addition of MTT reagent (20 μL) in each well, as per manufacturer's instructions and incubated for a further 4 hours. Solubilization solution (100 μL) was added per well and the plates incubated overnight at 37° C. The plates were read in a spectrophotometer (scanning from 500-650 nm, signal peak at 570 nm). A representative result is illustrated in FIG. 36.

The next assay has as its system HT-29 cells. Description: cells. It is filed as cell-based, human. The following applies: MTT, 24 hours; read-out: In vivo HT29 Cells (approximate IC50). The procedure:
as §3, §4

In assay [8] the target is T4, DNA gyrase. In kind it is biochemical, E. coli. The following applies: for IC50 cleavage: Table 5-C; for Cleavage (IC50 μM): Table 4.
Experimental: GyrA and GyrB were added to solutions containing 35 mM Tris.HCl (pH, 7.5), 24 mM KCl, 4 mM MgCl2, 1.8 mM spermidine, 6.5% glycerol, 0.36 mg/mL BSA, 9 μg/mL tRNA, 5 mM DTT, 2 mM ATP and 10 nM relaxed pBR322 DNA. […] The reactions were incubated at 25° C., and at each time point 30-μl aliquots were quenched with 1 μL of 10% SDS and 2 μL of 2 mg/ml proteinase K. Quenched aliquots were kept on ice until the experiment was completed, at which time they were incubated at 37° C. for half an hour. An equal volume of chloroform/isoamyl alcohol (24:1) and a half volume of loading buffer STEB (40% sucrose/100 mM Tris HCl, pH 7.5/1 mM EDTA/2 mg/ml bromophenol blue) were added, and the mixtures then were vortexed and centrifuged for 1 min at 13,000 rpm. The aqueous phase was loaded onto 1% agarose, TAE (40 mM Tris-acetate, 1 mM EDTA) gels that contained 1 μg/ml ethidium bromide and were run at either 30 V overnight in TAE containing 1 μg/ml ethidium bromide (in the cold room) or 70 V for 2.5 hours in TAE containing 1 μg/ml ethidium bromide.
The target of assay [9] is T3, E. coli Topoisomerase IV. Kind of assay: biochemical. Details: purchased John Innes Enterprises (Norwich, UK).
Experimental: as §5
Assay [10] addresses DNA gyrase (MG 1655 A2B2) (Escherichia coli, UniProt P0AES4+P0AES6). Kind of assay: biochemical. Details: species or system E. coli.
Experimental: GyrA and GyrB were added to a solution containing 35 mM Tris.HCl (pH, 7.5), 24 mM KCl, 4 mM MgCl2, 1.8 mM spermidine, 6.5% glycerol, 0.36 mg/mL BSA, 9 μg/mL tRNA, 5 mM DTT, 2 mM ATP and 24 nM relaxed pBR322 DNA. […] The reactions were incubated at 25° C., and at each time point 30-μl aliquots were quenched with 1 μL of 10% SDS. An equal volume of chloroform/isoamyl alcohol (24:1) and a half volume of loading buffer STEB (40% sucrose/100 mM Tris.HCl, pH 7.5/100 mM EDTA/2 mg/ml bromophenol blue) were added, and the mixtures then were vortexed and centrifuged for 1 min at 13,000 rpm. The aqueous phase was loaded onto 1% agarose, TAE (40 mM Tris-acetate, 1 mM EDTA) gels and were run at either 30 V overnight in TAE (in the cold room) or 70 V for 2.5 hours. The gels were stained for about 20 min in TAE containing 1 μg/ml ethidium bromide followed by destaining in multiple washes of TAE.
The target in a further assay is DNA gyrase A2B2 (Escherichia coli, UniProt P0AES4+P0AES6). Kind of assay: biochemical. It is filed as biochemical, E. coli.
Assay [11] has as its target Wheatgerm topoisomerase I (Triticum aestivum, UniProt A0A3B6RK19). Description: Wheatgerm topoisomerase I-mediated relaxation assay. It is filed as biochemical. The protocol: Wheatgerm topoisomerase I-mediated relaxation assays were performed as per the manufacturer's instructions. Topoisomerase I (2 nM) was added to reactions containing 50 mM Tris. HCl pH 7.5, 50 mM NaCl, 0.1 mM EDTA, 1 mM DTT, 20% glycerol, 4.6 nM of […] pBR322 DNA, and inhibitor where appropriate.
as §1

Setting [12] is: Topo IIα Human, R (relaxation reaction) IC50.

We go through nine molecules from patent US20080234132A1, “Microcin B17 Analogs And Methods For Their Preparation And Use” (priority 2004, published 2008).

Read-outs that look alike come from different tables or passages of the source. *1 amine or outer side, *2 acyl side, *3 side chain or, on linkers, in order; H or OH if unused. Where a SMILES comes first, the peptide text is derived from it. [ ]: non-standard residue; d: D form. GlyΨ(Thz) = O=C(c1csc(CN[*:1])n1)[*:2]; X3 = O=C(c1coc(CN[*:1])n1)[*:2] Bounds are passed on as bounds.

T3 sequence (P20083 whole entry): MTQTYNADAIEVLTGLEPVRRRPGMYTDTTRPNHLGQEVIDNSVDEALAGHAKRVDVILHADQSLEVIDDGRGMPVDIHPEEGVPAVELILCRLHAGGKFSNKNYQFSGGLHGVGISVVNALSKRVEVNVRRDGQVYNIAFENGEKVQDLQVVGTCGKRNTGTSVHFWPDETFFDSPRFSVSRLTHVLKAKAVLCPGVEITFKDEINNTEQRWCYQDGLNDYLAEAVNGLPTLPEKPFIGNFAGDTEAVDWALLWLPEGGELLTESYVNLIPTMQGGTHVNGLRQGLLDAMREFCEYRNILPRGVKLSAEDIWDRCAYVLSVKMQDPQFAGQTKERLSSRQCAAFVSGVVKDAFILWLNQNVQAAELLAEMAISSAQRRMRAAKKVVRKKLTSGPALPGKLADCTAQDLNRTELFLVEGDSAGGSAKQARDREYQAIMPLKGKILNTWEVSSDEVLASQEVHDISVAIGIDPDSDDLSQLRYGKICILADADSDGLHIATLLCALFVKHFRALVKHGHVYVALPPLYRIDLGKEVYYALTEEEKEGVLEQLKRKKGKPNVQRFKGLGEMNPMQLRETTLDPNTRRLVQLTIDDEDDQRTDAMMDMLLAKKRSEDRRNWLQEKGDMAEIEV
T3 sequence (P0AFI2 whole entry): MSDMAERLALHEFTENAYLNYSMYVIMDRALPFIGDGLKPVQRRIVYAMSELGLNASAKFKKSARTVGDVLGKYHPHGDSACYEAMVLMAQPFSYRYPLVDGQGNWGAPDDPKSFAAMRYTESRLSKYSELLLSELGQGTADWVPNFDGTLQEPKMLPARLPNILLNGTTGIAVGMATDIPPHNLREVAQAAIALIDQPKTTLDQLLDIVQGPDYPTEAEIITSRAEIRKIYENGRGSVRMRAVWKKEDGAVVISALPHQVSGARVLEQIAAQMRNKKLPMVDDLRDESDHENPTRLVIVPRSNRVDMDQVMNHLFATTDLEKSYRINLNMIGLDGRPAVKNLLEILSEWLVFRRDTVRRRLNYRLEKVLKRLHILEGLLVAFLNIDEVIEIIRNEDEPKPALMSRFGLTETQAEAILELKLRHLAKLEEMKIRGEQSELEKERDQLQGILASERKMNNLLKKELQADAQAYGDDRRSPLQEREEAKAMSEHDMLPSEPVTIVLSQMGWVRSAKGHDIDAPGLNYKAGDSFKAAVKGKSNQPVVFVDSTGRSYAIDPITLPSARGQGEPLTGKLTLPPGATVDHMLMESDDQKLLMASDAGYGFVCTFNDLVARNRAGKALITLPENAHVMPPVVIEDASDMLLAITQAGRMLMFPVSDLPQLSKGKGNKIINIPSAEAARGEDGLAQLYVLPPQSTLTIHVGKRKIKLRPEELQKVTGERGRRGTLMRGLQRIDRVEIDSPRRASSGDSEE
Wheatgerm topoisomerase I, sequence (A0A3B6RK19 entry or part of it): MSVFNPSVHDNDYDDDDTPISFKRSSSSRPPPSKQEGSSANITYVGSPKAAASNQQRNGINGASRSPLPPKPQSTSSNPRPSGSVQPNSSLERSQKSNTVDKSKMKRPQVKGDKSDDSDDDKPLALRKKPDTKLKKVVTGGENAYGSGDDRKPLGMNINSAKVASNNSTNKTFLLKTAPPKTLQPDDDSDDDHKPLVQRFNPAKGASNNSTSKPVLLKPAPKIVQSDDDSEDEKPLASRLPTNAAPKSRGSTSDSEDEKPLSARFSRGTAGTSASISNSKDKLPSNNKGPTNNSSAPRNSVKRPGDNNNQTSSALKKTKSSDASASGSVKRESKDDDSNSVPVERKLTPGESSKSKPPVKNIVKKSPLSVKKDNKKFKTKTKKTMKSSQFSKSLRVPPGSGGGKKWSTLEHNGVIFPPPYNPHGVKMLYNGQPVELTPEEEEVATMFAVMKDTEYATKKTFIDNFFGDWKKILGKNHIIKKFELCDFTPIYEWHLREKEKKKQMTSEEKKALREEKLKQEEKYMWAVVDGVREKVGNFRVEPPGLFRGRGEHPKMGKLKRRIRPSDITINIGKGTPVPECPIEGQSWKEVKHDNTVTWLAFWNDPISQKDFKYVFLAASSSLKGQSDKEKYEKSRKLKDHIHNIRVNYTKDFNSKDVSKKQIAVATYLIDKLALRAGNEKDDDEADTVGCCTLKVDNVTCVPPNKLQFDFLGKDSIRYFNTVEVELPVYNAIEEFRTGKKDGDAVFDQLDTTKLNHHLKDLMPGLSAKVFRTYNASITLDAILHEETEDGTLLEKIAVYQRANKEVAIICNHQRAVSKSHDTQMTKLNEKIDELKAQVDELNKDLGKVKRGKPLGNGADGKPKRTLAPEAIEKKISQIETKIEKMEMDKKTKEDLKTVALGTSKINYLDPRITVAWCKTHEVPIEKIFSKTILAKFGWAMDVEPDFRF
Experimental for DNA gyrase A2B2: Relaxation assays were performed in a manner analogous to that described by Pierrat et al., 2005. Briefly, relaxation assays were performed as for the supercoiling assay but with some modifications: ATP and spermidine were omitted. Gyr A and Gyr B were added to a solutions containing 35 mM of Tris.HCl (pH=7.5), 24 mM of KCl, 4 mM of MgCl2, 1.8 mg/mL of spermidine, 6.5% of glycerol, 0.36 mg/mL of BSA, 9 μg/mL of tRNA, 5 mM of DTT, 2 mM of ATP and 24 nM of relaxed pBR322 DNA. […] The amount of DMSO was kept constant at 3.33%. The reactions were incubated at 25° C., and at each time point 30 μL aliquots were quenched with the addition of an equal volume of chloroform/isoamyl alcohol (24:1) and a half volume of loading buffer STEB (40% sucrose/100 mM Tris HCl, pH 7.5/100 mM EDTA/2 mg/mL bromophenol blue). The mixtures then were vortexed and centrifuged for 1 minute at 13,000 rpm. The aqueous phase was loaded onto 1% agarose, TAE (40 mM Tris-acetate, 1 mM EDTA) gels and were run at either 30 V overnight in TAE (in the cold room) or 70 V for 2.5 hours in TAE. The gels were stained for about 20 minutes in TAE containing 1 μg/mL ethidium bromide followed by destaining in multiple washes of TAE. The data were analysed using Syngel software.
Experimental for pBR322 DNA: Other compounds like Ethidium Bromide (EtBr), MccB17 and Ciprofloxacin (CFX) were also tested as controls. In this assay, negatively supercoiled pBR322 was relaxed by topoisomerase I in the presence or the absence of the putative DNA intercalative compound. […] Sample reactions were performed in the same buffer used for the DNA relaxation of DNA gyrase (Pierrat & Maxwell, 2003). […] In one set of reactions, negatively supercoiled pBR322 DNA was relaxed at 37° C. for 30 minutes, then intercalative agent was added, i.e., the substrate of the assay was relaxed. In a second set of reactions, the intercalative agent was incubated with the DNA in reaction buffer at 37° C. for 15 minutes prior to the addition of topoisomerase I, i.e., the substrate of the assay was negatively supercoiled. […] Samples were incubated for 60 minutes at 37° C., followed by treatment with 1% SDS and 0.3 mg/mL proteinase K at 37° C. for 30 minutes. Reactions were terminated and samples were prepared for agarose gel electrophoresis as previously described (Heddle et al., 2001). Each reaction product was separated on 1% agarose gel, followed by staining in 1 μg/mL ethidium bromide.

By IC50 is commonly meant the concentration that inhibits the measured activity by half. Regarding `CC(C)(C)OC(=O)NCc1nc(C(=O)O)cs1` [#5], the “Topo I Human IC50” value at Human topoisomerase I is listed as “only inhibited human topoisomerase I”. Besides, the “Topo IIα Human, D (decatenation reaction) IC50” value on Human topoisomerase IIα [1] is listed as “exquisitely sensitive”. Also, at E. coli Topoisomerase IV [2], the “Topo IV, D (decatenation reaction) IC50” value is “exquisitely sensitive”. The IC50 at Human topoisomerase IIα [3] (read-out: Topo IIα Human, R (relaxation reaction) IC50) was less than 20 µM.
For the molecule `CC(C)(C)OC(=O)NCc1nc(-c2nc(C(=O)O)cs2)co1` [#7], the “IC50 SC gyrase” value against DNA gyrase [4] is listed as “Inactive”.
Still for that read-out and setting: with `CC(C)(C)OC(=O)NCc1nc(-c2nc(C(=O)O)co2)cs1` [#8] the entry was “Inactive”.
Take `O=C(O)c1cn(C2CC2)c2cc(N3CCNCC3)c(F)cc2c1=O` [Ciprofloxacin, reference compound]: the “inhibition of DNA-dependent ATPase of wild type enzyme” value in assay [5] (FIG. 18, 0.5 and 1.0 μM) is given as “slow down”. The “inhibition of DNA-independent ATPase of wild type enzyme” value in assay [5] (FIG. 18, no DNA) was “does not inhibit”. Further, in the assay with pBR322 DNA, the “concentration producing a weak intercalative property” value is 50 µM. For the same molecule, the “inhibition of DNA-independent ATPase of W751R mutant enzyme” value in [6] (FIG. 18, no DNA) is “does not inhibit”. Moreover, the “inhibition of DNA-dependent ATPase of W751R mutant A2B2” value in assay [6] (W751R enzyme 106 nM, + DNA) is reported as “slow down”. Further, the “germination of A. thaliana ecotype Columbia seeds” value in assay [7] is listed as “growth is inhibited immediately after germination”.
`C[C@H](NC(=O)CNC(=O)CNC(=O)c1coc(CNC(=O)[C@H](C)NC(=O)CNC(=O)[C@@H](N)CCC(N)=O)n1)C(=O)O` [Peptide 4] (H-QGA[X3]GGA-OH): the IC50 in the assay with HeLa cells is greater than 75 µM; in the assay on HT-29 cells, greater than 75 µM; against Human topoisomerase I it was greater than 300 µM; on DNA gyrase [4] it was 400 µM; at Human topoisomerase IIα [1], less than 50 µM; against E. coli Topoisomerase IV [2] it was 175 µM. The half-inhibitory concentration (IC50) at E. coli Topoisomerase IV [9] is greater than 300 µM; against Human topoisomerase IIα [3] (setting [12]) it was 225 µM. The IC50 cleavage entry against DNA gyrase [8] was “No”.
As for `CC(NC(=O)CNC(=O)CNC(=O)c1coc(CNC(=O)C(C)NC(=O)CNC(=O)C(N)CCC(N)=O)n1)C(=O)O` (stereo not drawn) [Peptide 4] (H-QGA[X3]GGA-OH; configuration not given here), on DNA gyrase [8], the “Cleavage (IC50 μM)” value is “inactive”. The “Supercoiling (IC50 μM) MG 1655 A2B2” value in [10] (Table 4) is “Slow”. Moreover, on Human topoisomerase IIα [3] (setting [12]), half-maximal inhibition (IC50) was put at 225 µM.
As to `CC(C)(C)OC(=O)NCc1nc(C(=O)O)cs1` [Peptide 5], the IC50 in the assay with HeLa cells was roughly 75 µM; with HT-29 cells, roughly 15 µM; on Human topoisomerase I, 40 µM; against DNA gyrase [4], 75 µM; on Human topoisomerase IIα [1], less than 5 µM; on E. coli Topoisomerase IV [2], 20 µM. The figures for the IC50 at E. coli Topoisomerase IV [9] and against Human topoisomerase IIα [3] (setting [12]) were greater than 75 µM and 15 µM, respectively.
With `C[C@H](NC(=O)CNC(=O)CNC(=O)c1csc(CNC(=O)[C@H](C)NC(=O)CNC(=O)[C@@H](N)CCC(N)=O)n1)C(=O)O` [Peptide 5] (H-QGA[GlyΨ(Thz)]GGA-OH), the half-maximal inhibitory concentration (IC50) with HeLa cells is roughly 75 µM; in the assay with HT-29 cells, roughly 15 µM; on Human topoisomerase I it was 25 µM; on DNA gyrase A2B2 it was 40 µM; at DNA gyrase [4], 25 µM; at Human topoisomerase IIα [1], less than 2.5 µM. This molecule also gave a 50% inhibitory concentration (IC50) on Human topoisomerase IIα [3] (setting [12]) of 7 µM. On DNA gyrase [8], the IC50 cleavage entry is on record as “No”.
In the case of `CC(NC(=O)CNC(=O)CNC(=O)c1csc(CNC(=O)C(C)NC(=O)CNC(=O)C(N)CCC(N)=O)n1)C(=O)O` (stereo not drawn) [Peptide 5] (H-QGA[GlyΨ(Thz)]GGA-OH; configuration not given here), at Human topoisomerase I, the “Topo I Human IC50” value is recorded as “inhibited”. Also, the “Cleavage (IC50 μM)” value at DNA gyrase [8] was “inactive”. In addition, the concentration for half-maximal inhibition (IC50) against DNA gyrase A2B2 is 15 µM; against E. coli Topoisomerase IV [9] it was less than 10 µM; in [10] (Supercoiling (IC50 μM) MG 1655 A2B2, Table 4) it was 15 µM; in [5], 15 µM; at Human topoisomerase IIα [3] (setting [12]), less than 20 µM. The “Topo I Wheatgerm IC50” value in [11] is given as “inhibited”. Further, the “Topo IIα Human, D (decatenation reaction) IC50” value at Human topoisomerase IIα [1] was “exquisitely sensitive”. For the same molecule, the “Topo IV, D (decatenation reaction) IC50” value at E. coli Topoisomerase IV [2] is reported as “exquisitely sensitive”. Besides, the “ATPase % inhibition at saturation” value in assay [5] (Table 4) was determined as 40%.
